This is an account of results in patent publication US20080299076A1, “Compunds and compositions that cause non-apoptotic cell death and uses thereof” (priority 2006, published 2008).

The target of experiment [1] is T1, murine VDAC3 (Mus musculus, UniProt Q60931).
T1 construct: expressed in transfected cells; host or cells: yeast (S. cerevisiae) with murine VDAC3 in place of yeast VDAC; isolated mitochondria
T1 sequence (Q60931 1-283): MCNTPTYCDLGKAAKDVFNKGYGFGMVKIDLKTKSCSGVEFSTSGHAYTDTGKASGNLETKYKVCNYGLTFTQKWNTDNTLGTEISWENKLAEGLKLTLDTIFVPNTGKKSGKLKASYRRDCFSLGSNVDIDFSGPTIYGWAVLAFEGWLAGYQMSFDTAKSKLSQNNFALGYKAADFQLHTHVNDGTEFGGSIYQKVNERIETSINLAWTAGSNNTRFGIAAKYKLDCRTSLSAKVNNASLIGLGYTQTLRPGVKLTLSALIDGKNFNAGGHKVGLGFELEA
Briefly: NADH oxidation assay in mitochondria from yeast expressing VDAC3. The class given is biochemical. To be noted: mitochondria from yeast expressing VDAC3 in place of yeast VDAC. As for the experimental part: In certain embodiments, mitochondria can be purified from yeast that had been engineered to express murine or human VDAC3 in place of yeast VDAC.
Mitochondria were isolated from yeast expressing murine VDAC3 in place of yeast VDAC. The rate of NADH oxidation by an inner membrane NADH dehydrogenase was determined by measuring the change in NADH absorbance over time. Mitochondria with a disrupted outer membrane show an increased rate of NADH oxidation (red, shocked) compared to untreated mitochondria (green).
NADH oxidation in the mitochondria was measured by resuspending mitochondria isolated from yeast in R-buffer (0.65 M sucrose, 10 mM HEPES (pH 7.5), 10 mM KH2PO4, 5 mM KCl, 5 mM, MgCl2) to a final concentration of 100 μg/ml. Mitochondrial concentration was measured by dissolving mitochondria in 0.6% SDS and reading absorbance at 280 nm. The mitochondrial suspension was then incubated with 25 μM NADH, and the absorbance at 340 nm monitored over a 15 minute period. The assay was repeated in the presence of erastin. To assess mitochondrial intactness, a parallel assay was run in which mitochondria were hypotonically shocked prior to addition of NADH. The mitochondrial pellet was resuspended in dH2O and incubated on ice for 3 minutes to disrupt the outer mitochondrial membrane. 2× R-buffer was then added to restore normal osmotic conditions.

Experiment [2] concerns BJ-TERT/LT/ST/RAS^V12 cells. Briefly: Mitochondrial membrane potential (JC-1 stain). The class given is cell-based, human. Conditions: after 13 hours of treatment. How it is done: In certain embodiments, there is loss of mitochondrial membrane potential in >70% of BJ-TERT/LT/ST/RAS^V12 cells after 13 hours of erastin A1 treatment (JC-1 stain), and morphological changes in mitochondria examined by EM, consistent with the notion that erastin induces mitochondrial dysfunction.

Experiment [3] relates to PARP1. Briefly: PARP1 cleavage (western blot). The class given is cell-based, human. To be noted: BJ-TERT/LT/ST/RAS^V12 cells; staurosporine 1 μM 6 h, camptothecin 1 μM 18 h, erastin 20 μg/mL. As for the experimental part:
BJ-TERT/LT/ST/RAS^V12 tumor cells were seeded in six-well dishes, incubated overnight at 37° C. with 5% CO2 and were treated with nothing (NT), staurosporine (ST, 1 μM) for 6 h, camptothecin (C, 1 μM) for 18 h, or erastin (20 μg/mL) for the indicated time, lysed and analyzed by western blot with an anti-PARP1 antibody. A relatively high concentration of erastin was used to ensure loss of PARP cleavage was not due to a concentration-dependent effect.
BJ-TERT/LT/ST/RAS^V12 cells were seeded in polystyrene 100×20 mm dishes (Falcon/#353003) in 10 ml of media. Three million cells were seeded in each dish. After overnight incubation at 37° C. with 5% CO2, BJ-TERT/LT/ST/RAS^V12 cells were treated with nothing, staurosporine (1 μM) for 6 h, camptothecin (1 μM) for 18 h or erastin (20 μg/mL) for 6, 10, 12, 12.5, 13, 14, 18 or 26 h, and prepared for western blotting.
(In western blotting, separated proteins are transferred to a membrane and probed.)

Experiment [4] deals with BJ-TERT/LT/ST/RAS^V12 cells. Kind of experiment: Oxidative species detection (H2DCF-DA, flow cytometry). The class given is cell-based, human. Conditions: 4.6 μM erastin. As for the experimental part:
BJ-TERT/LT/ST/RAS^V12 cells (shown in histogram plots and in line graph, dark line) and BJ-TERT cells (shown in line graph only, light line) were treated with 4.6-μM erastin and the level of intracellular oxidative species determined using 2′7′-dichlorodihydrofluorescein diacetate (H2DCF-DA, Molecular Probes) and flow cytometry. Cells were seeded at 3×10^5 cells per dish in 60-mm dishes and allowed to grow overnight. Cells were incubated with 10 μM of H2DCF-DA for 10 minutes, harvested by trypsinization, washed twice with cold PBS, re-suspended in 100 μl of PBS and incubated with 5 μl of 50-μg/ml propidium iodide for 10 minutes. 400 μl of PBS was added and the solution analyzed by flow cytometry (FACSCalibur-Becton-Dickinson).
2′7′-dichlorodihydrofluorescein diacetate (H2DCF-DA, Molecular Probes) was used to measure oxidative species by flow cytometry. Non-fluorescent H2DCF-DA is cleaved by endogenous esterases and then is oxidized to generate fluorescent dichlorofluorescein (DCF). BJ-TERT/LT/ST/RAS^V12 and BJ-TERT cells were seeded at 3×10^5 cells per dish in 60-mm dishes and allowed to grow overnight. Cells were treated with 4.6 μM erastin for 2, 4, 6, 8, 10 and 12 h. […] 400 μl of PBS was added and the solution analyzed by flow cytometry (FACSCalibur-Becton-Dickinson). FL1-H indicates DCF fluorescence units detected.
On the technique in general: In flow cytometry, cells or beads pass a laser one at a time.

As to `CCOc1ccccc1-n1c(C(C)N2CCN(C(=O)COc3ccc(Cl)cc3)CC2)nc2ccccc2c1=O` (centres unmarked) [erastin, 2-(1-{4-[2-(4-Chloro-phenoxy)-acetyl]-piperazin-1-yl}-ethyl)-3-(2-ethoxy-phenyl)-3H-quinazolin-4-one], the “Rate of NADH oxidation / permeability of outer mitochondrial membrane to NADH” value in experiment [1] was “increases the permeability”; in experiment [1] (listed as Erastin), “increased the rate of NADH oxidation”. For the same compound, the “cells with loss of mitochondrial membrane potential” value in experiment [2] is above 70%. The PARP1 cleavage result in experiment [3] is recorded as “unaffected”. Also, in experiment [4], the “Formation of oxidative species” value is listed as “oxidizing species were detected”.
